These are literature values, as cited in article PMC3184248 (Angewandte Chemie (International ed. in English), 2011).

For data set [1] the following is noted: 1.5T, 37 °C.
The conditions of data set [2]: 1.5T, 37 °C. The source holds these as a separate data set.

With GdDTPA, the relaxivity in plasma in data set [1] is 4.1 mM⁻¹ s⁻¹. The relaxivity in buffer in data set [2] was 3.3 mM⁻¹ s⁻¹.
